In brackets after ≈: the same amount, converted by molar mass. Several values for one entry are separate records, joined by “and”; a condition that tells them apart may be missing. Equal values may be shown once.
Legend:
Assay in all cases: ≥ marks a high value that may be exact or a test limit, other limits are often not marked, values filed in µg/mL are converted to µM
[1] = tested on: Staphylococcus aureus ATCC 25923
[2] = tested on: Escherichia coli ATCC 25922
[3] = tested on: Staphylococcus aureus ATCC 29213
[4] = tested on: Staphylococcus aureus
[5] = tested on: Pseudomonas aeruginosa ATCC 27853
[6] = tested on: Escherichia coli

CC(C)C[C@H](NC(=O)CNC(=O)[C@H](CCCCN)NC(=O)CNC(=O)[C@H](C)NC(=O)[C@H](C)N)C(=O)N[C@H](C(=O)N[C@@H](CO)C(=O)N[C@@H](CC(N)=O)C(=O)N[C@@H](CC(C)C)C(=O)N[C@@H](CC(C)C)C(=O)N[C@@H](CCC(=O)O)C(=O)N[C@@H](CCCCN)C(N)=O)C(C)C [AAGKGLVSNLLEK]
MIC [1]: 49 µM (≈ 63.6 µg/mL)
MIC [2]: 24.6 µM (≈ 31.9 µg/mL)

CC[C@H](C)[C@H](NC(=O)[C@@H](N)Cc1ccccc1)C(=O)N[C@@H](CCCN=C(N)N)C(=O)N[C@@H](CO)C(=O)N[C@@H](CC(C)C)C(=O)N[C@@H](Cc1ccccc1)C(=O)N[C@@H](Cc1ccccc1)C(=O)N[C@@H](Cc1ccccc1)C(N)=O [FIRSLFFF]
MIC [1]: > 100 µM
MIC [2]: > 100 µM

CC[C@H](C)[C@H](NC(=O)[C@H](CCCN=C(N)N)NC(=O)[C@H](CCC(N)=O)NC(=O)[C@@H](NC(=O)CNC(=O)[C@H](CCCN=C(N)N)NC(=O)[C@H](CCCCN)NC(=O)[C@@H](N)Cc1ccccc1)C(C)C)C(=O)N[C@@H](CCCCN)C(=O)N[C@@H](CC(=O)O)C(=O)N[C@@H](Cc1ccccc1)C(=O)N[C@@H](CC(C)C)C(=O)N[C@@H](CCCN=C(N)N)C(=O)O [FKRGVQRIKDFLR]
MIC [3]: > 40 µM
MIC [2]: 10 µM (≈ 16.6 µg/mL)

CC(C)C[C@H](NC(=O)[C@H](CC(C)C)NC(=O)[C@H](CCCCN)NC(=O)[C@H](CCCCN)NC(=O)[C@H](CC(C)C)NC(=O)[C@H](Cc1ccccc1)NC(=O)[C@H](CCCCN)NC(=O)[C@H](CC(C)C)NC(=O)[C@@H](N)Cc1ccccc1)C(N)=O [FLKFLKKLL]
MIC [2]: 13.9 µM and 27.8 µM

CC[C@H](C)[C@H](NC(=O)[C@H](CCCCN)NC(=O)[C@H](CC(C)C)NC(=O)[C@@H](N)Cc1ccccc1)C(=O)N[C@@H](CC(C)C)C(=O)N[C@@H](CCCCN)C(=O)N[C@@H](CCCCN)C(=O)N[C@@H](CC(C)C)C(=O)N[C@@H](CC(C)C)C(N)=O [FLKILKKLL]
MIC [1]: 14.3 µM (≈ 16 µg/mL)

CC[C@H](C)[C@H](NC(=O)[C@@H]1CCCN1C(=O)[C@H](CC(C)C)NC(=O)[C@@H](N)Cc1ccccc1)C(=O)N[C@@H](C)C(=O)N[C@@H](CO)C(=O)N[C@@H](CC(C)C)C(=O)N[C@@H](CC(C)C)C(=O)NCC(=O)N[C@@H](CCCCN)C(=O)N[C@@H](Cc1ccc(O)cc1)C(=O)N[C@@H](CC(C)C)C(=O)O [FLPIASLLGKYL]
MIC [4]: > 200 µM

CC(C)[C@H](NC(=O)[C@H](CCCN=C(N)N)NC(=O)[C@@H](N)Cc1ccccc1)C(=O)N[C@H](C(=O)N[C@@H](Cc1c[nH]c2ccccc12)C(=O)N[C@@H](CCCN=C(N)N)C(=O)N[C@H](C(=O)N[C@@H](CCCCN)C(=O)N[C@@H](Cc1c[nH]c2ccccc12)C(=O)N[C@@H](Cc1c[nH]c2ccccc12)C(=O)N[C@@H](CCCCN)C(=O)NCC(N)=O)[C@@H](C)O)[C@@H](C)O [FRVTWRTKWWKG]
MIC [1]: 3 µM (≈ 4.95 µg/mL)
MIC [2]: 6 µM (≈ 9.9 µg/mL)

CC[C@H](C)[C@H](NC(=O)CN)C(=O)NCC(=O)N[C@@H](C)C(=O)N[C@H](C(=O)N[C@@H](CC(C)C)C(=O)N[C@@H](CCCCN)C(=O)N[C@H](C(=O)N[C@@H](CC(C)C)C(=O)N[C@@H](C)C(=O)N[C@@H](CC(C)C)C(=O)N[C@H](C(=O)N[C@@H](CO)C(=O)N[C@@H](Cc1c[nH]c2ccccc12)C(=O)N[C@H](C(=O)N[C@@H](CCCCN)C(=O)N[C@@H](CCCN=C(N)N)C(=O)N[C@@H](CCCCN)C(=O)N[C@@H](CCCN=C(N)N)C(N)=O)[C@@H](C)CC)[C@@H](C)CC)C(C)C)C(C)C [GIGAVLKVLALISWIKRKR]
MIC [1]: 5.6 µM (≈ 11.9 µg/mL)
MIC [5]: 11.2 µM (≈ 23.9 µg/mL)
MIC [6]: 11.2 µM (≈ 23.9 µg/mL)

NCC(=O)N[C@@H](CCCN=C(N)N)C(=O)N[C@@H](CCCN=C(N)N)C(=O)N1CCC[C@H]1C(=O)N[C@@H](CCCN=C(N)N)C(=O)N1CCC[C@H]1C(=O)N[C@@H](CCCN=C(N)N)C(=O)N1CCC[C@H]1C(=O)N[C@@H](CCCN=C(N)N)C(=O)N1CCC[C@H]1C(=O)N[C@@H](Cc1ccccc1)C(=O)N[C@@H](Cc1ccccc1)C(=O)N[C@@H](Cc1ccccc1)C(=O)N[C@@H](Cc1ccccc1)C(=O)O [GRRPRPRPRPFFFF]
MIC [5]: 80 µM (≈ 147 µg/mL)
MIC [3]: 40 µM (≈ 73.3 µg/mL)
MIC [2]: 160 µM (≈ 293 µg/mL)

CC[C@H](C)[C@H](NC(=O)[C@H](CCCN=C(N)N)NC(=O)[C@@H](N)CCCCN)C(=O)N[C@@H](CCCCN)C(=O)N[C@H](C(=O)N[C@@H](CC(C)C)C(=O)N[C@@H](CC(C)C)C(N)=O)[C@@H](C)O [KRIKTLL]
MIC [1]: > 70 µM
MIC [2]: > 70 µM

CC(C)[C@H](NC(=O)[C@H](Cc1c[nH]c2ccccc12)NC(=O)[C@H](C)NC(=O)[C@@H](N)CCCN=C(N)N)C(=O)N[C@@H](C)C(=O)N[C@@H](Cc1c[nH]c2ccccc12)C(=O)N[C@@H](CCCN=C(N)N)C(=O)N[C@@H](CC(N)=O)C(=O)N[C@@H](CCCN=C(N)N)C(N)=O [RAWVAWRNR]
MIC [3]: 206 µM (≈ 250 µg/mL)
MIC [2]: 412 µM (≈ 500 µg/mL)

CSCC[C@H](NC(=O)[C@H](CCCCN)NC(=O)[C@H](CCCCN)NC(=O)[C@H](CCCCN)NC(=O)[C@@H](N)CCCN=C(N)N)C(=O)N[C@@H](CCCCN)C(=O)N[C@@H](CCCCN)C(=O)N[C@@H](C)C(=O)N[C@@H](CC(C)C)C(=O)N[C@@H](CCC(N)=O)C(=O)N[C@@H](Cc1ccc(O)cc1)C(N)=O [RKKKMKKALQY]
MIC [5]: > 100 µM
MIC [2]: > 100 µM

CC[C@H](C)[C@H](NC(=O)[C@H](CC(C)C)NC(=O)[C@@H](NC(=O)[C@H](CC(C)C)NC(=O)[C@H](CO)NC(=O)[C@H](CCCCN)NC(=O)[C@@H](NC(=O)[C@H](CC(C)C)NC(=O)[C@H](CCCCN)NC(=O)[C@H](CC(C)C)NC(=O)[C@H](CO)NC(=O)[C@H](CCCN=C(N)N)NC(=O)[C@H](CCCCN)NC(=O)[C@@H](NC(=O)[C@H](Cc1ccccc1)NC(=O)[C@@H](N)CO)[C@@H](C)CC)[C@@H](C)CC)C(C)C)C(=O)N[C@@H](CCCCN)C(=O)O [SFIKRSLKLIKSLVLIK]
MIC [4]: 4 µM (≈ 7.95 µg/mL)

CC(C)C[C@H](NC(=O)[C@H](Cc1ccccc1)NC(=O)[C@@H]1CCCN1C(=O)[C@H](Cc1c[nH]c2ccccc12)NC(=O)[C@H](Cc1c[nH]c2ccccc12)NC(=O)[C@H](Cc1c[nH]c2ccccc12)NC(=O)[C@@H]1CCCN1C(=O)[C@H](Cc1ccccc1)NC(=O)[C@H](CCCCN)NC(=O)[C@H](CCCCN)NC(=O)[C@@H](N)C(C)C)C(=O)N[C@@H](CCCCN)C(=O)N[C@@H](CCCCN)C(N)=O [VKKFPWWWPFLKK]
MIC [4]: 5.59 µM (≈ 9.99 µg/mL)
MIC [6]: 11.2 µM (≈ 20 µg/mL)
MIC [2]: 16 µM (≈ 28.6 µg/mL)

CC(C)C[C@H](NC(=O)[C@H](CC(C)C)NC(=O)[C@H](CC(N)=O)NC(=O)[C@H](CCCCN)NC(=O)[C@H](CC(C)C)NC(=O)[C@H](CC(N)=O)NC(=O)[C@@H](N)C(C)C)C(=O)N[C@@H](CCCN=C(N)N)C(=O)O [VNLKNLLR]
MIC [5]: 32 µM (≈ 31 µg/mL)

CC(C)C[C@H](NC(=O)[C@H](Cc1ccccc1)NC(=O)[C@@H]1CCCN1C(=O)[C@H](Cc1ccc(O)cc1)NC(=O)[C@H](Cc1c[nH]c2ccccc12)NC(=O)[C@H](Cc1c[nH]c2ccccc12)NC(=O)[C@@H]1CCCN1C(=O)[C@H](Cc1ccccc1)NC(=O)[C@H](CCCN=C(N)N)NC(=O)[C@H](CCCN=C(N)N)NC(=O)[C@@H](N)C(C)C)C(=O)N[C@@H](CCCN=C(N)N)C(=O)N[C@@H](CCCN=C(N)N)C(N)=O [VRRFPWWYPFLRR]
MIC [2]: 4 µM (≈ 7.51 µg/mL)

NC(=O)[C@H](Cc1c[nH]c2ccccc12)NC(=O)[C@H](CCCN=C(N)N)NC(=O)[C@H](Cc1ccc(O)cc1)NC(=O)[C@H](CCCN=C(N)N)NC(=O)[C@@H](N)Cc1c[nH]c2ccccc12 [WRYRW]
MIC [1]: 57.7 µM (≈ 49.9 µg/mL)
MIC [2]: 115 µM (≈ 99.9 µg/mL)

Reference: DBAASP
